Values quoted from earlier work, collected in US8835486B2, “Pharmaceutical formulation containing an HMG-COA reductase inhibitor and method for the preparation thereof” (priority 2006, dated 2014).

- solubility in water: > 50 mg/mL
Structure (SMILES): CC(C)n1c(/C=C/C(O)CC(O)CC(=O)O)c(-c2ccc(F)cc2)c2ccccc21 (stereo not shown) [Fluvastatin]
